This is an account of results in PubChem BioAssay (NCI).

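Assay format: 96-well plates, 48-hour exposure. TGI is the concentration that stops growth completely.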

Common to all, as to assay: NCI tumour cell line growth inhibition, 48 h
Assay [1] relates to SNB-75 CNS.
Assay [2] deals with RXF 393 renal.
The test system of assay [3] is SK-OV-3 ovarian.
Assay [4] relates to HCT-15 colon.
The test system of assay [5] is 786-0 renal.
Assay [6] has as its system MOLT-4 leukemia.
The subject of assay [7] is OVCAR-5 ovarian.
Assay [8] relates to SW-620 colon.
Assay [9] deals with MDA-MB-435.
In assay [10] the test system is OVCAR-3 ovarian.

For `CSc1cc(Cl)c(C)cc1S(=O)(=O)NC(=O)NNc1ccc(F)cc1`, the TGI in assay [1], in [2], in assay [3], in [4], in assay [5] and in [6] was above 100 µM in each case. Moreover, the TGI in [7], in [8], in [9] and in assay [10] was above 100 µM in each case.

Turning to `Cn1c2ccc(F)cc2c2ccc3c(c21)C(=O)C=CC3=O`, the TGI in assay [1] was 97.8 µM; in [2], 10.5 µM; in assay [3] it was above 100 µM; in [4], 28.3 µM; in assay [5], 8.21 µM; in assay [6], 13.2 µM. Also, the TGI was above 73.4 µM in assay [7], 8.54 µM in assay [8], 38.1 µM in assay [9] and 19.6 µM in assay [10].

As for `CNC(=O)N(CCC#N)CCN(C(=O)NC)c1ccccc1`, the TGI in assay [1], in assay [2], in [3], in assay [4], in [5] and in assay [6] was above 100 µM throughout. Besides, the TGI in assay [7], in [8], in assay [9] and in [10] was above 100 µM each time.

For `COc1ccccc1NC(=S)N=Nc1c(O)[nH]c2ccccc12`, the TGI in [1], in [2], in assay [3], in assay [4], in assay [5] and in assay [6] was above 100 µM each time. Besides, the TGI in assay [7], in [8], in [9] and in [10] was above 100 µM each time.

On to `CCOC(=O)/C=C(/C(=O)OCC)n1cc(C)c(=O)n(Cc2cnnn2COCCOC(C)=O)c1=O`, for which the TGI was above 67.2 µM in assay [1]; 29.6 µM in [2]; above 100 µM in assay [3]; above 49.1 µM in [4]; 22.5 µM in assay [5]; 18.8 µM in assay [6]. The TGI in assay [7] was 36.9 µM; in assay [8], above 55.6 µM; in assay [9], 38.2 µM; in assay [10], 32.3 µM.

Consider `O[C@@H]1C[C@H](Cl)c2c(Cl)sc(Cl)c21`, for which the TGI in [1], in assay [2], in assay [3], in assay [4], in assay [5] and in assay [6] was above 100 µM in each case. Besides, the TGI in assay [7], in [8], in assay [9] and in [10] was above 100 µM in each case.

For the compound `O=C(CCBr)N1CCN(C(=O)CCBr)CC1`, the TGI in [1] turned out to be 180 µM; in assay [2], 150 µM; in [3], 212 µM; in [4], 222 µM; in assay [5] it was 191 µM; in [6], 215 µM. Besides, the TGI in [7] was determined as 189 µM; in assay [8] it was 218 µM; in [9], 245 µM; in [10], 218 µM.

In the case of `O=C1c2cc(I)ccc2N2CCN=C2N1Cc1ccccc1`, the TGI in [1] is 39.7 µM; in assay [2], 49.4 µM; in [3], above 100 µM; in [4], above 100 µM; in assay [5], above 100 µM; in [6], above 100 µM. Further, the TGI in assay [7], in [8], in [9] and in assay [10] was above 100 µM throughout.

As to `CSc1ncc2c(n1)-c1ccccc1OC2N1CCOCC1` (stereo not given), the TGI in [1], in [2], in [3], in assay [4], in assay [5] and in [6] was above 100 µM throughout. Moreover, the TGI in [7], in [8], in [9] and in assay [10] was above 100 µM in each case.

For the compound `CC(=O)C1=C(C)O[C@@H]2O[C@H](COCc3ccccc3)[C@@H](OCc3ccccc3)[C@H](O)[C@@H]2S1`, the TGI came out at 77.1 µM in [1]; 47.7 µM in assay [2]; 87.6 µM in assay [3]; 71.6 µM in assay [4]; 60.6 µM in assay [5]; 33.3 µM in [6]. For the same compound, the TGI is 84.1 µM in assay [7], 75.5 µM in assay [8], 38 µM in assay [9] and 29.4 µM in [10].

On to `N[C@H]1c2c(Br)sc(Br)c2C(=O)[C@H]1O`, for which the TGI in assay [1] was 79.7 µM; in assay [2] it was 16.2 µM; in assay [3] it was 38.3 µM; in assay [4], 24.3 µM; in assay [5], 34.5 µM; in assay [6], above 22 µM. Moreover, the TGI in [7] was 60.7 µM; in assay [8] it was 25.8 µM; in assay [9], 36.7 µM; in [10], above 61.9 µM.

With `CC(C)(C)COC(=O)C(C)(C)NC(=O)C(CC(=O)OCc1ccccc1)NC(=O)OCc1ccccc1` (stereo not given), the TGI in [1] is above 100 µM; in assay [2], above 100 µM; in assay [3], above 100 µM; in [4], 69.1 µM; in assay [5] it was above 100 µM; in [6] it was above 100 µM. In addition, the TGI is 93.5 µM in assay [7], above 100 µM in assay [8], 89.9 µM in assay [9] and above 100 µM in assay [10].

Take `COc1ccc(-n2c(SC(CN3CCOCC3)CN3CCCC3=O)nc3ccccc3c2=O)cc1` (stereo not given): the TGI in [1], in [2], in assay [3], in assay [4], in assay [5] and in assay [6] was above 100 µM throughout. Further, the TGI in [7], in assay [8], in [9] and in assay [10] was above 100 µM throughout.

On to `Cc1ncc([N+](=O)[O-])n1CC[N+](C)([O-])CCCCn1ccnc1[N+](=O)[O-]` (stereo not given), for which the TGI in assay [1], in assay [2], in assay [3], in [4], in assay [5] and in [6] was above 100 µM in each case. Besides, the TGI in assay [7], in assay [8], in assay [9] and in assay [10] was above 100 µM throughout.

Take `Oc1c(CN2CCCC2)ccc2cccnc12`: the TGI was above 100 µM in [1]; above 100 µM in assay [2]; above 96.2 µM in [3]; above 41.2 µM in assay [4]; above 100 µM in assay [5]; above 100 µM in assay [6]. Also, the TGI in assay [7] is above 100 µM; in assay [8], above 100 µM; in assay [9] it was above 100 µM; in assay [10] it was above 82.7 µM.

On to `Cc1cc2c(c(C(=O)NCC(=O)N[C@@H](C)C(=O)OCc3ccccc3)c1)Oc1c(cc(C)cc1C(=O)NCC(=O)N[C@@H](C)C(=O)OCc1ccccc1)S2`, for which the TGI in assay [1] was 46.1 µM; in assay [2] it was 85.3 µM; in [3], above 100 µM; in assay [4], above 100 µM; in assay [5], above 100 µM; in assay [6], above 100 µM. The TGI in assay [7], in [8], in [9] and in [10] was above 100 µM throughout.

Regarding `CCOP(=O)(CCCC(O)CNc1nc(N)nc(Cl)c1N=Nc1ccc(Cl)cc1)OCC` (stereo not given), the TGI was 11.1 µM in assay [1]; 18.5 µM in assay [2]; 19.2 µM in assay [3]; 20.2 µM in assay [4]; 17.9 µM in [5]; 11.8 µM in assay [6]. Further, the TGI in assay [7] was determined as 25.5 µM; in assay [8], 36.5 µM; in assay [9] it was 19 µM; in assay [10], 18.4 µM.

With `Cc1cc2nc3c(C#N)c4c(c(Nc5ccc(F)cc5)n3c2cc1C)CCC4`, the TGI in assay [1], in assay [2], in assay [3], in [4], in assay [5] and in assay [6] was above 100 µM each time. For the same compound, the TGI in assay [7], in [8], in [9] and in assay [10] was above 100 µM each time.

For `Cc1c(Cc2ccccc2)n(C(C)OCCN(OC(=O)Oc2ccccc2)C(=O)Oc2ccccc2)c(=O)[nH]c1=O` (stereo not given), the TGI in assay [1] was 20.6 µM; in assay [2] it was 30.1 µM; in assay [3] it was 46.3 µM; in assay [4], 28.3 µM; in assay [5] it was 34.3 µM; in assay [6] it was 46.3 µM. Further, the TGI in assay [7] stood at 31.6 µM; in assay [8], 41.7 µM; in assay [9], 56.5 µM; in assay [10], 37.7 µM.

With `COc1cccc2c1NC(=O)Cc1c-2[nH]c2ccccc12`, the TGI in assay [1], in [2], in assay [3], in assay [4], in [5] and in [6] was above 100 µM in each case. Further, the TGI in assay [7], in assay [8], in [9] and in assay [10] was above 100 µM in each case.
